Measured values published in US11896678B2, “Compositions and methods for treatment of peroxisome proliferator-activated receptor gamma (PPARG) activated cancer” (THE BROAD INSTITUTE, INC., priority 2017, dated 2024).

Columns and labels:
PPARA = target: T1, PPARA (Homo sapiens, UniProt Q07869); conditions: read-out: apparent Ki; cited from earlier work
T1 sequence (Q07869 1-468): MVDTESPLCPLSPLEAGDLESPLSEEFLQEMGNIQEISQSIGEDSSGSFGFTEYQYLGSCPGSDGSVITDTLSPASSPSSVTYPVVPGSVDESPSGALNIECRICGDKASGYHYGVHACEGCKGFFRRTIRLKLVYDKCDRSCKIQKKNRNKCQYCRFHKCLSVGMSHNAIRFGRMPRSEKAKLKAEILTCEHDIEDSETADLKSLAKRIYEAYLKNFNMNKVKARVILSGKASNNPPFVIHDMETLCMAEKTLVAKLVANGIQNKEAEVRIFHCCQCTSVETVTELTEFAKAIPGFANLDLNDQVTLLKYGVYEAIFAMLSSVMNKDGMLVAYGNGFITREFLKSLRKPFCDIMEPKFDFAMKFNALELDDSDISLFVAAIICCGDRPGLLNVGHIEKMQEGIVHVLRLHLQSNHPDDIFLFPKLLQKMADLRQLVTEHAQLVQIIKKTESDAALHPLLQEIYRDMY

DLBCL cells = conditions: 1-15 uM; cited from earlier work
UM-UC-9 cells = assay: Direct cell counting dose-response proliferation assay; format: cell-based, human
Method: To determine whether PPARG modulators affect the proliferation and/or viability of PPARG-activated bladder cancer cell lines, a direct cell counting-based assay was performed. This assay likely avoids potential artifacts associated with the use of an ATP content-based assay, given that PPAR modulators are known to regulate cellular metabolic activity. […] These IC50 values align well with the calculated IC50s from both the cell-based reporter gene assay (FIG. 8A) and the biochemical corepressor assay (FIG. 8D).
(§1) Proliferation Assays: To enable cell-counting experiments, cell lines were transduced with a lentiviral vector encoding nuclear-targeted GFP, TagGFP2-H2B (Evrogen), and stable pools generated following selection for puromycin resistance. Cell lines were maintained for at least 7 days following selection prior to expansion and seeding into 96- or 384-well plates for further analysis. For kinetic proliferation assays, 96-well plates (n 1% 4 per condition) were imaged and counted every two hours using IncuCyte Zoom (Essen BioScience). Media and compounds were replaced approximately every 3-4 days. For endpoint assays to measure dose-response, cells were plated in 384-well plates, dosed with compound, and upon reaching approximately 70% to 90% confluence in control wells, cells were either counted using fluorescence imaging (Incu-Cyte Zoom) or incubated with CyQuant (Thermo Fisher) at the indicated time and plates were read with a fluorescent plate reader.

FABP4 expression = assay: Immunoblot of FABP4 in bladder cancer cell lines; format: cell-based, human; conditions: panel of bladder cancer cell lines
Method: Western Blot Analysis: Western blots were performed using standard protocols with semi-dry transfer Trans-Blot® SD (Bio-Rad Hercules, CA), Li-Cor Odyssey Blocking buffer, and imaging with LiCor Odyssey Imaging System (LI-COR Lincoln, NE). Briefly, cells were grown in 6-well plates and harvested using Complete Lysis-M with protease and phosphatase inhibitors (Roche Applied Science). Western blot analyses were performed using standard protocols with semi-dry transfer Trans-Blot SD (Bio-Rad), LI-COR Odyssey Blocking buffer, and imaging with LI-COR Odyssey Imaging System (LI-COR). The anti-PPARG C26H12, anti-PPARG 81B8, anti-FABP4 D25B3, and anti-CEACAM5 CB30 antibodies were obtained from Cell Signaling Technology. The anti-ACSL5 ab57210 and anti-HMCGS2 EPR8642 antibodies were obtained from Abcam. The anti-VCL (vinculin) V9264 antibody was obtained from Sigma-Aldrich. All primary antibodies were tested at 1:1,000 dilutions, with the exception of anti-VCL, which was tested at a 1:5,000 dilution. Secondary goat anti-mouse 926-68020, and goat-anti-rabbit 926-32211 antibodies were obtained from LI-COR Biosciences and used at 1:15,000 dilutions.

[1] = tested on: PPARG-activated bladder cancer cell lines; assay: Proliferation assays in PPARG-activated bladder cancer cell lines; format: cell-based, human; conditions: 100 nM-500 nM
Method: A panel of bladder cancer cell lines with PPARG modulators in colony formation assays was then tested (FIG. 10), kinetic proliferation assays (IncuCyte Zoom; Essen Bioscience) using cell lines treated with a single concentration of compound (100 nM-500 nM), and end-point dose-response assays (CellTiter Glo or CyQuant).
This assay was expanded to include an additional 8 representative bladder cancer cell lines, including cell lines with PPARG amplification, RXRA p.S427F mutation, activated gene signature, and control cell lines with low level expression of PPARG and target genes. […] Representative data for the UM-UC-9 cell line are shown in FIG. 6B, and is tabulated for the tested bladder cancer cell lines in Table 1. […] This significant (P<0.01) preferential sensitivity to PPARG inverse-agonists, but not antagonists, is maintained across all of the PPARG-activated cell lines in the panel, including the RXRA p.S427F cell line, HT-1197 (41), the PPARG-amplified cell lines, 5637 and UM-UC-9, and the PPARG activation gene signature cell lines Cal29, UM-UC-1, and RT112/84 (FIG. 12). […] Similar results were obtained with these cell lines in parallel studies using clonogenic assays to quantify colony-forming ability (FIG. 10).
as §1

[2] = tested on: PPARG-activated pancreatic and colorectal cancer cell lines; assay: Kinetic proliferation assay in pancreatic and colorectal cancer cell lines; format: cell-based; conditions: 500 nM
From the text: To enable cell-counting, cell lines were transduced with a lentiviral vector encoding nuclear-targeted GFP (TagGFP2-H2B), and stable pools generated following selection for puromycin-resistance. Cell lines were maintained for at least 7 days following selection prior to expansion and seeding into 96-well plates for further analysis. For kinetic proliferation assays, 96-well plates were imaged in phase-contrast and green fluorescence mode every two hours using IncuCyte Zoom (Essen BioScience, Ann Arbor MI). Using IncuCyte software, the number of fluorescent nuclei were counted to monitor quantitative changes in cell number over time. Media and compounds were replaced approximately every 3-4 days.
DMSO treatment was also included as a vehicle control.

5637 cells = assay: Proliferation assay in PPARG-amplified 5637 cells; format: cell-based; conditions: Homo sapiens; data not shown
Method: To determine if treatment of PPARG-activated bladder cancer cell lines with PPARG modulators impacted viability, a variety of compounds were tested in proliferation assays.

[3] = alone; cited from earlier work
[4] = cited from earlier work
[5] = cited from earlier work; remark: listed apart in the source
[6] = tested on: urinary bladder carcinogenesis; conditions: rats; cited from earlier work
bladder cancer = conditions: rodents; cited from earlier work

In the case of `O=C(Nc1ccncc1)c1cc([N+](=O)[O-])ccc1Cl` [T0070907, 2-Chloro-5-nitro-N-4-pyridinyl-benzamide], the Ki (PPARA) is listed as about 0.85 µM, the “growth of DLBCL cells” value (DLBCL cells) is listed as “attenuate growth” and the “effect on cell proliferation compared with DMSO control” value (UM-UC-9 cells) is listed as “significantly reduced proliferation”. The IC50 (UM-UC-9 cells; Homo sapiens, UM-UC-9, read-out: calculated IC50, proliferation) was 0.039 µM, the “expression of FABP4” value (FABP4 expression) was “able to reduce expression of FABP4” and the “sensitivity of cell lines” value [1] was “preferentially sensitive”. The “sensitivity of cell lines” value [2] was “preferentially sensitive” and the IC50 (5637 cells) was 0.02 to 0.03 µM.

In the case of `N.N.O=C([O-])C1(C(=O)[O-])CCC1.[Pt+2]` [Carboplatin, platinum, diammine [1,1-cyclobutane-dicarboxylato(2-)-0,0′]-(SP-4-2)], the oral bioavailability [3] is listed as “approximately 4%”, the solubility in water [4] is listed as “approximately 14 mg/mL” and the “pH of a 1% solution” value [5] is listed as 5-7.

In the case of `CN(CCOc1ccc(CC2SC(=O)NC2=O)cc1)c1ccccn1` (stereo not shown) [rosiglitazone], the “urinary bladder carcinogenesis compared with OH-BBN alone” value [6] is listed as “potentiate urinary bladder carcinogenesis” and the “carcinogenic effect, bladder cancer” value (bladder cancer) is listed as “not”.
